Laboratory results: ChEMBL document CHEMBL5046292, “Resveratrol-Based MTDLs to Stimulate Defensive and Regenerative Pathways and Block Early Events in Neurodegenerative Cascades” (J Med Chem, 2022)
Each block holds one compound with its values, some of them ahead of it. Activity calls are given as the source filed them. No cut-off for these calls is given here.

What was measured:
[1] = target: T1, Nuclear factor erythroid 2-related factor 2 (Homo sapiens) (UniProt Q16236); details: Arec32, time 24.0 hrs
T1 sequence (whole entry): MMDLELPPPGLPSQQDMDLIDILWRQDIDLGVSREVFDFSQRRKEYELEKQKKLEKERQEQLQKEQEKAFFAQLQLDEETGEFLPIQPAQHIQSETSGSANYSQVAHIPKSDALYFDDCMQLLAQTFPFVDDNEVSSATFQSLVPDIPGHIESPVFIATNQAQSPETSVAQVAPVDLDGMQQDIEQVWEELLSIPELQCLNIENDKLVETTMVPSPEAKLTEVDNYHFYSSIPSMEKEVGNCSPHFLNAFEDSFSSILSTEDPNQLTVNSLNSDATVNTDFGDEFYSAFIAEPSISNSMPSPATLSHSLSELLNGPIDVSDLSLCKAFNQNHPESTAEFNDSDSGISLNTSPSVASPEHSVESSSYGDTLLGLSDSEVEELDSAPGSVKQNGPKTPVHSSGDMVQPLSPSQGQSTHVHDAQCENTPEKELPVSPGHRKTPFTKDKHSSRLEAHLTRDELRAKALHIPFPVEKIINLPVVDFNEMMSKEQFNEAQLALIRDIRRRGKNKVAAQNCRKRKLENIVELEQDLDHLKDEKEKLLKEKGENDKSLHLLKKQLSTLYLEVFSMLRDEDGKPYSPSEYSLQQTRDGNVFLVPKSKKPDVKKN

Hippocampal neurone [2] = experiment: Induction of neurogenesis in C57BL/6 mouse assessed as increase in cell migration distance by confocal microscopic analysis; assay type: functional, cell-based
Hippocampal neurone [3] = experiment: Induction of neurogenesis in C57BL/6 mouse hippocampus neurospheres assessed as upregulation of TuJ-1 by confocal microscopic analysis; assay type: functional, cell-based
Hippocampal neurone [4] = experiment: Induction of neurogenesis in C57BL/6 mouse hippocampus neurospheres assessed as upregulation of MAP-2 by confocal microscopic analysis; assay type: functional, cell-based
[5] = (§1) Cytotoxicity against human SH-SY5Y cells assessed as cell viability at 100 uM incubated for 24 hrs by MTT assay; assay type: toxicity, cell-based; details: SH-SY5Y cells, read-out: Activity
SH-SY5Y = experiment: as §1; assay type: toxicity, cell-based; details: sh-sy5y, 24 h, 100 µM
in vitro = details: PAMPA, pH 7.4
Description: Permeability of compound in PBS buffer at pH 7.4 by PAMPA-BBB assay

[6] = target: T2, Amine oxidase [flavin-containing] B (Homo sapiens, UniProt P27338); experiment: Inhibition of human recombinant MAO-B at 2 microM preincubated upto 30 mins using tyramine as substrate by fluorescence assay relative to control; details: TDE = time-dependent effect
T2 sequence (P27338 whole entry): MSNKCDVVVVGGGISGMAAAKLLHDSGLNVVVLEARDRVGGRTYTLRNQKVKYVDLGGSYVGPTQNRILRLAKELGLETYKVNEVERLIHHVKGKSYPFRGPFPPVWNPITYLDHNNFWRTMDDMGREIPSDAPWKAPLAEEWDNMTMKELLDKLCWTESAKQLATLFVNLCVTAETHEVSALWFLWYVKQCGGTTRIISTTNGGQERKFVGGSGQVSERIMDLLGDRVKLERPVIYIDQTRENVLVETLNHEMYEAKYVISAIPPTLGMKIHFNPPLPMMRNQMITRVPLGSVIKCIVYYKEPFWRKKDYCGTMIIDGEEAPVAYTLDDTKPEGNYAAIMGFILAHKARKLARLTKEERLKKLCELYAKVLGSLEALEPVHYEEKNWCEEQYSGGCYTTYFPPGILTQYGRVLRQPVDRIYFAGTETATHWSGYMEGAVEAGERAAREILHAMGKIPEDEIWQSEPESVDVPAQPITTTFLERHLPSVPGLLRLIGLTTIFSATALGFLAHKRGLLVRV

[7] = target: T2, Amine oxidase [flavin-containing] B; experiment: Inhibition of human recombinant MAO-B at 15 microM preincubated upto 30 mins using tyramine as substrate by fluorescence assay relative to control; details: TDE = time-dependent effect
[8] = GSH reactivity in presence glutathione-S-transferas by HPLC-MS analysis; assay type: physicochemical
Hippocampus [9] = experiment: Neuroprotective activity in okadaic acid-induced toxicity in C57BL/6J mouse hippocampus slice assessed as cell viability at 1 uM measured after 6 hrs by MTT assay; assay type: functional, tissue-based
Hippocampus [10] = experiment: Neuroprotective activity in okadaic acid-induced toxicity in C57BL/6J mouse hippocampus slice assessed cell death at 1 uM after 6 hrs by propidium iodide staining; assay type: functional, tissue-based
Hippocampus [11] = experiment: Neuroprotective activity in okadaic acid-induced toxicity in C57BL/6J mouse hippocampus slice assessed reduction in ROS level at 1 uM after 6 hrs by H2DCFDA probe based fluorescence analysis; assay type: functional, tissue-based
Hippocampus [12] = experiment: Down regulation of okadaic acid-induced inducible nitric oxide synthase expression in C57BL/6J mouse hippocampus slice at 1 uM by Western blotting analysis; assay type: functional, tissue-based
Hippocampus [13] = experiment: Down regulation of okadaic acid induced p65 expression in C57BL/6J mouse hippocampus slice at 1 uM by Western blotting analysis; assay type: functional, tissue-based
Hippocampus [14] = experiment: Down regulation of okadaic acid induced HO-1 expression in C57BL/6J mouse hippocampus slice at 1 uM by Western blotting analysis; assay type: functional, tissue-based

Compound: C#CCn1nc(/C=C/c2ccccc2)oc1=O
viability at 24 h, 100 µM [5]: 30%

Compound: C#CCn1nc(/C=C/c2cccc(OC)c2)oc1=O
Activity (Hippocampal neurone [2]): Active
Activity (Hippocampal neurone [3]): Active
Activity (Hippocampal neurone [4]): Active
Activity (SH-SY5Y): Non-Toxic

Compound: O=c1[nH]nc(/C=C/c2ccc(O)c(O)c2)o1
Activity (SH-SY5Y): Non-Toxic

Compound: Oc1ccc(/C=C/c2cc(O)cc(O)c2)cc1 [RESVERATROL]
viability at 24 h, 100 µM [5]: 50%

Compound: C#CCNC(=O)/C=C/c1cccc(C#N)c1
CD [1]: > 60 µM

Compound: O=c1[nH]nc(/C=C/c2cccc(O)c2)o1
Activity (Hippocampal neurone [2]): Active
Activity (Hippocampal neurone [3]): Active
Activity (Hippocampal neurone [4]): Active
CD [1]: > 60 µM
Papp (in vitro): ≤ 0.5 ×10⁻⁶ cm/s

Compound: C#CCn1nc(/C=C/c2ccc(OC)cc2)oc1=O
Activity (Hippocampal neurone [2]): Active
Activity (Hippocampal neurone [3]): Active
Activity (Hippocampal neurone [4]): Active
Activity [7]: Tde
Activity (SH-SY5Y): Non-Toxic
Activity [8]: Not Active
Activity (Hippocampus [9]): Active
Activity (Hippocampus [10]): Active
Activity (Hippocampus [11]): Active
Activity (Hippocampus [12]): Active
Activity (Hippocampus [13]): Active
Activity (Hippocampus [14]): inactive

Compound: COc1ccc(/C=C/c2n[nH]c(=O)o2)cc1OC
CD [1]: > 60 µM

Compound: C#CCNC/C=C/c1ccc(O)c(OC)c1
Activity (SH-SY5Y): Non-Toxic

More lines, main results first:

CD [1]: > 60 µM
Compound: C#CCNC(=O)/C=C/c1ccc(O)cc1

CD [1]: > 60 µM
Compound: COc1cccc(/C=C/c2n[nH]c(=O)o2)c1
Activity (Hippocampal neurone [2]): Active
Activity (Hippocampal neurone [3]): Active
Activity (Hippocampal neurone [4]): Active

Papp (in vitro): ≤ 0.7 ×10⁻⁶ cm/s
Compound: O=c1[nH]nc(/C=C/c2ccc(O)cc2)o1
Activity (SH-SY5Y): Non-Toxic

CD [1]: > 60 µM
Papp (in vitro): ≤ 0.5 ×10⁻⁶ cm/s
Compound: C#CCNC(=O)/C=C/c1ccc(O)c(OC)c1

Activity [6]: Tde
Compound: O=c1[nH]nc(/C=C/c2cccc([N+](=O)[O-])c2)o1
Activity (Hippocampal neurone [2]): Active
Activity (Hippocampal neurone [3]): Active
Activity (Hippocampal neurone [4]): Active

CD [1]: > 60 µM
Compound: O=c1[nH]nc(/C=C/c2ccc3c(c2)OCO3)o1

Papp (in vitro): ≤ 0.5 ×10⁻⁶ cm/s
Compound: COc1cc(/C=C/c2n[nH]c(=O)o2)cc(OC)c1OC

Papp (in vitro): ≤ 0.4 ×10⁻⁶ cm/s
Compound: C#CCNC(=O)/C=C/c1ccc(O)c(O)c1
Activity (SH-SY5Y): Non-Toxic

CD [1]: > 60 µM
Papp (in vitro): ≤ 0.1 ×10⁻⁶ cm/s
Compound: O=c1[nH]nc(/C=C/c2cc(O)cc(O)c2)o1

CD [1]: > 60 µM
Compound: COc1ccc(/C=C/c2n[nH]c(=O)o2)cc1
